Assay results reported in patent US8337881B2, “Cyanoacrylate monomer formulation containing diiodomethyl-p-tolylsulfone” (Ethicon, Inc., priority 2003, dated 2012).
Like-named read-outs stand apart in the source and are kept apart here.

Tests used:
[1] = system: Enterococcus faecium 700221; experiment: MIC/MBC of pure DIMPTS, tube dilution procedure; type: cell-based; conditions: preliminary evaluation
Description: (§1) Minimum inhibitory concentration is the lowest concentration that prevents the development of visible growth after a period of incubation. Minimum bactericidal concentration is the lowest concentration that achieves a 1000 fold or greater reduction in the original bacterial inoculum. The minimum inhibitory concentration (MIC) and minimum bactericidal concentration (MBC) is evaluated using tube dilution procedure. The effectiveness of the antimicrobial property of pure […] is described in terms of minimum inhibitory concentration (MIC) and minimum bactericidal concentration (MBC) in Table II (A).

[2] = system: Staphylococcus aureus 33591; experiment: MIC/MBC of pure DIMPTS, tube dilution procedure; type: cell-based; conditions: preliminary evaluation
Description: as §1

[3] = system: Bacillus subtilis 902173; experiment: MIC/MBC of pure DIMPTS, tube dilution procedure; type: cell-based; conditions: preliminary evaluation
Description: (§2) Minimum inhibitory concentration is the lowest concentration that prevents the development of visible growth after a period of incubation. Minimum bactericidal concentration is the lowest concentration that achieves a 1000 fold or greater reduction in the original bacterial inoculum. The minimum inhibitory concentration (MIC) and minimum bactericidal concentration (MBC) is evaluated using tube dilution procedure.
(§3) The effectiveness of the antimicrobial property of pure DIMPTS is described in terms of minimum inhibitory concentration (MIC) and minimum bactericidal concentration (MBC) in Table II (A).

[4] = system: Candida albicans 10231; experiment: MIC/MBC of pure DIMPTS, tube dilution procedure; type: cell-based
Description: as §2, §3

[5] = system: Escherichia coli 8739; experiment: MIC/MBC of pure DIMPTS, tube dilution procedure; type: cell-based; conditions: preliminary evaluation
Description: as §2, §3

[6] = system: Pseudomonas aeruginosa 9027; experiment: MIC/MBC of pure DIMPTS, tube dilution procedure; type: cell-based; conditions: preliminary evaluation
Description: as §2, §3

[7] = system: Staphylococcus aureus 6538; experiment: MIC/MBC of pure DIMPTS, tube dilution procedure; type: cell-based; conditions: preliminary evaluation
Description: as §2, §3

[8] = system: Staphylococcus epidermidis 51625; experiment: MIC/MBC of pure DIMPTS, tube dilution procedure; type: cell-based; conditions: preliminary evaluation
Description: as §2, §3

[9] = system: Streptococcus agalactiae 624; experiment: MIC/MBC of pure DIMPTS, tube dilution procedure; type: cell-based; conditions: preliminary evaluation
Description: as §2, §3

[10] = Solubility of DIMPTS in cyanoacrylate monomer; type: physicochemical
Description: Diiodomethyl-p-tolylsulfone (DIMPTS) is soluble in cyanoacrylate monomer at least up to 15,000 ppm (wt./wt.). Accordingly, formulations may herein have a concentration of diiodomethyl-p-tolylsulfone ranging from about 500 (0.05%) to about 10,000 ppm (1.00%), preferably from about 700 (0.07%) to about 7,000 ppm (0.70%), more preferably the concentration of diiodomethyl-p-tolylsulfone is about 2800 ppm (0.28%).

[11] = aqueous; cited from earlier work

Row | MIC [1] [µg/mL] | MIC [2] [µg/mL] | MIC [3] [µg/mL] | MIC ([4]; Candida albicans 10231, preliminary evaluation, read-out: MIC) [µg/mL] | MIC ([4]; Candida albicans, 10231, statement in description, strain not given, read-out: minimum inhibitory concentration against C. albicans) [µg/mL] | MIC [5] [µg/mL] | MIC [6] [µg/mL] | MIC [7] [µg/mL] | MIC [8] [µg/mL] | MIC [9] [µg/mL] | soluble in cyanoacrylate monomer [10] | SMILES | MBC [2] [µg/mL] | MBC [3] [µg/mL] | MBC ([4]; Candida albicans 10231, preliminary evaluation) [µg/mL] | MBC [5] [µg/mL] | MBC [7] [µg/mL] | MBC [8] [µg/mL] | MBC [9] [µg/mL] | pKa [11]
1 | 50 | 12.5 | 50 | 5 | ~5 | 100 | > 100 | 100 | 25 | 50 | ≥ 15,000 ppm (wt./wt.) | Cc1ccc(S(=O)(=O)C(I)I)cc1 [DIMPTS, diiodomethyl-p-tolylsulfone] | < 250 | 50 to 100 | 10 to 100 | < 250 | < 250 | < 100 | 125 to 250 | –
2 | – | – | – | – | – | – | – | – | – | – | – | [O-][Cl+3]([O-])([O-])O [perchloric acid] | – | – | – | – | – | – | – | −5.0
